Columns and labels:
[1] = target: T1, human TLR8 (Homo sapiens, UniProt Q9NR97); assay: TLR8 wild type NFκB-luc cellular reporter assay; format: cell-based; parameters: unit not given here; details: HEK293 NFκB-luc reporter, 6 hours incubation; for TLR8-wt (LEC): second part of table
T1 construct: expressed in transfected cells; host or cells: HEK293
T1 sequence (Q9NR97 27-1041): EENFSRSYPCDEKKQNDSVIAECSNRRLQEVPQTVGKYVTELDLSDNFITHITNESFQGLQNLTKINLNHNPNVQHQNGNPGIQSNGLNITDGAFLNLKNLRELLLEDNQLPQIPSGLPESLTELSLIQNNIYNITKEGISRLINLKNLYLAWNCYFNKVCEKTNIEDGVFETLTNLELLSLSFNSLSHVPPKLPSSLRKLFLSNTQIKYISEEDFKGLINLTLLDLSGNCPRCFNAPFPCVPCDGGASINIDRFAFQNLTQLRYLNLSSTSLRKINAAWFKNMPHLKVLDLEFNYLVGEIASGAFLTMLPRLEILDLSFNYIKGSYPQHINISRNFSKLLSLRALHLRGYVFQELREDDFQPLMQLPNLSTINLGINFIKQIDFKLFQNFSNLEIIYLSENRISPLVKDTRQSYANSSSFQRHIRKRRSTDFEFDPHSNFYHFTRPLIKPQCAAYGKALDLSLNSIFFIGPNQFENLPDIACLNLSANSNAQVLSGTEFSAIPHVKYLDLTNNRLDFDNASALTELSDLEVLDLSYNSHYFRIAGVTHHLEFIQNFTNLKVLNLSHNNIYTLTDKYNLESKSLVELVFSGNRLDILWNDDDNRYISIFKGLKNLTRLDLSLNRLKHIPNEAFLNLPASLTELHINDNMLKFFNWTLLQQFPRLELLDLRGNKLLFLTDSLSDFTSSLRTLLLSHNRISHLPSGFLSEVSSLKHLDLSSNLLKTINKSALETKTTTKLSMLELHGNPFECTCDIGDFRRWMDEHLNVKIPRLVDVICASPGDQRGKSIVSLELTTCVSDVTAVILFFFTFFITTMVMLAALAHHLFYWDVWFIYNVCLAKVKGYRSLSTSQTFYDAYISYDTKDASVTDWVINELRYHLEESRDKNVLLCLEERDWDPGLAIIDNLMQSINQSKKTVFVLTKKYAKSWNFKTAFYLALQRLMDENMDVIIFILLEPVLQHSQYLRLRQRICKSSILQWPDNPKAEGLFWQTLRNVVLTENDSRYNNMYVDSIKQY
Method: The ability of compounds to activate human TLR7 and/or TLR8 was assessed in a cellular reporter assay using HEK293 cells transiently transfected with a TLR7 or TLR8 expression vector and NFκB-luc reporter construct. In one instance the TLR expression construct expresses the respective wild type sequence or a mutant sequence comprising a deletion in the second leucine-rich repeat of the TLR.
Briefly, HEK293 cells were grown in culture medium (DMEM supplemented with 10% FCS and 2 mM Glutamine). For transfection of cells in 10 cm dishes, cells were detached with Trypsin-EDTA, transfected with a mix of CMV-TLR7 or TLR8 plasmid (750 ng), NFκB-luc plasmid (375 ng) and a transfection reagent and incubated 24 hours at 37° C. in a humidified 5% CO2 atmosphere. Transfected cells were then detached with Trypsin-EDTA, washed in PBS and resuspended in medium to a density of 1.67×10^5 cells/mL. Thirty microliters of cells were then dispensed into each well in 384-well plates, where 10 μL of compound in 4% DMSO was already present. Following 6 hours incubation at 37° C., 5% CO2, the luciferase activity was determined by adding 15 μl of Steady Lite Plus substrate (Perkin Elmer) to each well and readout performed on a ViewLux ultraHTS microplate imager (Perkin Elmer). Dose response curves were generated from measurements performed in quadruplicates. Lowest effective concentrations (LEC) values, defined as the concentration that induces an effect which is at least two fold above the standard deviation of the assay, were determined for each compound.

[2] = system: interferon-stimulated responsive elements (ISRE); assay: Activation of ISRE promoter elements by conditioned media from PBMC (HEK-ISREluc); format: cell-based, human; parameters: unit not given here; details: compound applied to PBMCs, supernatant transferred to HEK-ISREluc cells, 24 hours
Method: The potential of compounds to induce IFN-I was also evaluated by measuring the activation of interferon-stimulated responsive elements (ISRE) by conditioned media from PBMC. The ISRE element of sequence GAAACTGAAACT is highly responsive to the STAT1-STAT2-IRF9 transcription factor, activated upon binding of IFN-I to their receptor IFNAR (Clontech, PT3372-5W). The plasmid pISRE-Luc from Clontech (ref. 631913) contains 5 copies of this ISRE element, followed by the firefly luciferase ORF. A HEK293 cell line stably transfected with pISRE-Luc (HEK-ISREluc) was established to profile of the conditioned PBMC cell culture media.
Briefly, PBMCs were prepared from buffy coats of at least two donors using a standard Ficoll centrifugation protocol. Isolated PBMCs were resuspended in RPMI medium supplemented with 10% human AB serum and 2×10^5 cells/well were dispensed into 384-well plates containing compounds (70 μL total volume). After overnight incubation, 10 μL of supernatant was transferred to 384-well plates containing 5×10^3 HEK-ISREluc cells/well in 30 μL (plated the day before). Following 24 hours of incubation, activation of the ISRE elements was measured by assaying luciferase activity using 40 μL/well Steady Lite Plus substrate (Perkin Elmer) and measured with ViewLux ultraHTS microplate imager (Perkin Elmer). The stimulating activity of each compound on the HEK-ISREluc cells was reported as LEC value, defined as the compound concentration applied to the PBMCs resulting in a luciferase activity at least two fold above the standard deviation of the assay. The LEC in turn indicates the degree of ISRE activation on transfer of a defined amount of PBMC culture medium. Recombinant interferon α-2a (Roferon-A) was used as a standard control compound.

Row | SMILES | TLR8-wt (LEC) [1] | TLR8-wt_LEC [1] | HEK-ISRE luc (LEC) [2]
1 | CCCCNc1nc(N)nc2cc(OC)c(OC)cc12 [Compound 1] |  | 1.1 | 
2 | CCCC[C@@H](CCO)Nc1nc(N)nc2cc(OC)c(OC)cc12 [Compound 3] |  | 5.5 | 
3 | CCC[C@@H](CO)Nc1nc(N)nc2cccc(-c3ccccc3)c12 [Compound 10] | >25 |  | 2.14
4 | CCCCNc1nc(N)nc2cccc(OCCOC)c12 [Compound 11] | 0.17 |  | 0.12
5 | CCC[C@@H](CCO)Nc1nc(N)nc2ccc(CC)cc12 [Compound 25] | 0.45 |  | 0.16
6 | CCC[C@@H](CCO)Nc1nc(N)nc2ccc(C(C)C)cc12 [Compound 26] | 1.97 |  | 3.07
7 | CCC[C@@H](CCO)Nc1nc(N)nc2ccc(Oc3ccc(C(F)(F)F)cc3Cl)cc12 [Compound 27] | >25 |  | 14.21
8 | CCCCNc1nc(N)nc2cc(Cl)c3c(c12)OCCO3 [Compound 28] | 0.88 |  | 1.11
9 | CCC[C@@H](CCO)Nc1nc(N)nc2ccc(Oc3ccc(C(F)(F)F)cc3)cc12 [Compound 29] | >25 |  | >23.81
10 | C#CCOc1cccc2nc(N)nc(NCCCC)c12 [Compound 30] | 0.10 |  | 0.04
11 | CCCCNc1nc(N)nc2cccc(OC(C)C)c12 [Compound 31] | 0.24 |  | 0.04
12 | CCCCNc1nc(N)nc2cccc(CCc3ccccc3)c12 [Compound 32] | 0.47 |  | 0.27
13 | CCC[C@@H](CO)Nc1nc(N)nc2cc(CO)ccc12 [Compound 33] | 0.15 |  | 0.14
14 | CCC[C@@H](CO)Nc1nc(N)nc2ccc(CO)cc12 [Compound 34] | 0.27 |  | 0.39
15 | CCCCNc1nc(N)nc2ccc(Oc3ccc(C(F)(F)F)cc3Cl)cc12 [Compound 35] | >25 |  | >23.81
16 | CCC[C@@H](CO)Nc1nc(N)nc2c(C)cccc12 [Compound 43] | 0.12 |  | 0.59

Row | SMILES | TLR8-wt (LEC) [1] | TLR8-wt_LEC [1] | HEK-ISRE luc (LEC) [2]
17 | CCC[C@@H](CO)Nc1nc(N)nc2cc(C)ccc12 [Compound 44] | 0.03 |  | 0.09
18 | CCC[C@@H](CO)Nc1nc(N)nc2ccc(C)cc12 [Compound 45] | 0.03 |  | 0.04
19 | CCC[C@@H](CO)Nc1nc(N)nc2cccc(C)c12 [Compound 46] | 0.04 |  | 0.07
20 | CCC[C@@H](CO)Nc1nc(N)nc2c(F)cccc12 [Compound 47] | 0.03 |  | 0.05
21 | CCC[C@@H](CO)Nc1nc(N)nc2cc(F)ccc12 [Compound 48] | 0.01 |  | 0.02
22 | CCC[C@@H](CO)Nc1nc(N)nc2cccc(F)c12 [Compound 50] | 0.00 |  | 0.01
23 | CCCC[C@@H](CO)Nc1nc(N)nc2ccc(C)cc12 [Compound 51] | 0.04 |  | 0.09
24 | CCCC[C@@H](CO)Nc1nc(N)nc2cccc(C)c12 [Compound 52] | 0.03 |  | 0.03
25 | CCC[C@@H](CCO)Nc1nc(N)nc2cc(C)ccc12 [Compound 53] | 0.05 |  | 0.02
26 | CCC[C@@H](CCO)Nc1nc(N)nc2ccc(C)cc12 [Compound 54] | 0.43 |  | 0.18
27 | CCC[C@@H](CO)Nc1nc(N)nc2cc(OC)ccc12 [Compound 56] | 0.04 |  | 0.09
28 | CCC[C@@H](CO)Nc1nc(N)nc2ccc(OC)cc12 [Compound 57] | 0.53 |  | 2.08
29 | CCC[C@@H](CO)Nc1nc(N)nc2cccc(OC)c12 [Compound 58] | 0.03 |  | 0.04
30 | CCCC[C@@H](CO)Nc1nc(N)nc2c(F)cccc12 [Compound 59] | 0.04 |  | 0.05
31 | CCCC[C@@H](CO)Nc1nc(N)nc2cc(F)ccc12 [Compound 60] | 0.01 |  | 0.02

More lines, main results first:

Row | TLR8-wt (LEC) [1] | SMILES | TLR8-wt_LEC [1] | HEK-ISRE luc (LEC) [2]
32 | 0.13 | CCCCNc1nc(N)nc2cccc(OC)c12 [Compound 9] |  | 0.10
33 | 0.30 | CCCCCNc1nc(N)nc2ccc(Br)cc12 [Compound 13] |  | 0.57
34 | 1.66 | CCCCNc1nc(N)nc2cc(C(=O)OC)ccc12 [Compound 17] |  | 0.75
35 | 0.13 | CCCCNc1nc(N)nc2cc(CO)ccc12 [Compound 18] |  | 0.05
36 | 2.55 | CCCCNc1nc(N)nc2ccc(-n3cnc(C)c3)cc12 [Compound 21] |  | 12.06
37 | 0.22 | CCCCNc1nc(N)nc2ccc(CO)cc12 [Compound 24] |  | 0.14
38 | 0.26 | CCCCNc1nc(N)nc2cccc(C)c12 [Compound 36] |  | 0.32
39 | 0.25 | CCCCNc1nc(N)nc2c(F)cccc12 [Compound 37] |  | 0.07
40 | 0.10 | CCCCNc1nc(N)nc2ccc(F)cc12 [Compound 38] |  | 0.11
41 | 0.31 | CCCCNc1nc(N)nc2cc(OC)ccc12 [Compound 39] |  | 0.15
42 | 1.83 | CCCCNc1nc(N)nc2ccc(OC)cc12 [Compound 40] |  | 2.44
43 | 0.13 | CCCCNc1nc(N)nc2cccc(Cl)c12 [Compound 41] |  | 0.17
44 | 0.14 | CCCCNc1nc(N)nc2cc(F)c(F)cc12 [Compound 42] |  | 0.26
45 | 0.03 | CCC[C@@H](CO)Nc1nc(N)nc2ccc(F)cc12 [Compound 49] |  | 0.13
46 | 0.05 | CCCC[C@@H](CO)Nc1nc(N)nc2ccc(F)cc12 [Compound 61] |  | 0.12
